Assay results taken from publication PMC5025780, “Copper(II) ions affect the gating dynamics of the 20S proteasome: a molecular and in cell study” (Scientific Reports, 2016).
Where two headings read alike, the source gives them in different places.

What was measured:
[1] = target: T1, human 20S proteasome (hCP), T-L activity; assay: T-L peptidase activity of isolated hCP (fluorogenic substrate); format: biochemical
T1 construct: purchased Boston Biochem (Cambridge, MA, USA)
Text: Purified human 20S proteasome (hCP) and the fluorogenic substrates Suc-LLVY-AMC, Z-Leu-Leu-Glu-AMC, and Ac-Arg-Leu-Arg-AMC used to assay the ChT-L, T-L, and C-L activity, were from Boston Biochem (Cambridge, MA, USA). Bathocuproinedisulfonic acid disodium salt (BCS), dithiothreitol (DTT), N-Acetyl-L-Cysteine (NAC), Sodium dodecylsulphate (SDS) as well as CuCl2 and Zn(NO3)2 were from Sigma-Aldrich (St. Louis, MO). Proteasome inhibitors Epoxomicin were obtained from Enzo Life Science. Wild type 20S proteasome isolated from Saccharomices Cerevisiae (yCP) and a mutant (α3ΔN) where nine residues of the N-terminal tail of the α3 subunit are deleted to provide a permanently open-gate conformations were isolated as described elsewhere.
Peptidase activities of hCP (2 nM) were assayed on in 50 μL Tris 25 mM pH 7.6, at 37 °C with 100 μM of the fluorogenic substrate. hCP was incubated with Cu(II)/Zn(II) ions for 1 h prior activity assays. The fluorescence signal activated by peptide cleavage was recorded at 440 nm (excitation at 360 nm) for 45 min, by a Varioskan (Thermo^©) plate reader in 384 multiwell plates. Three replicates were performed for each data point. Data were reported as normalized percentages of residual activity. The potency (IC50) was calculated from the value of the dose response plot corresponding at a fractional activity of 50%. The IC50 values were determined using a non linear fit of experimental data in according to equation: […]
The midpoint of this function occurs at a fractional activity value of 50%, corresponding to half inhibition of the target enzyme. The IC50 values and their standard errors were deduced from the fitting. To evaluate if copper is a reversible PI, we measured the ChT-L activity of hCP incubated with Cu(II) (2.20 μM) before and after addition of an equimolar amount of EDTA.

[2] = tested on: T2, 20S proteasome (CP) gate; assay: Steady-state Trp fluorescence of SDS-activated 20S proteasome (gating); set-up: species or system human; conditions: 100 μM Cu(II) added to SDS-activated CP (0.018% SDS), pH 7.6, 37 °C
T2 construct: purchased Boston Biochem (Cambridge, MA, USA)
Protocol: In particular, fluorescence spectra of the isolated 20S proteasome may be deconvoluted into two components. The first of these bands is ascribable to Trp13(α6) residues which are located at the entrance of the channel. Therefore, a red-shift of the first component may be associated to a gate opening of the 20S proteasome. Here, we exploited this effect to investigate the role of Cu(II) ions in CP gate closing. […] Next, we recorded the fluorescence spectra obtained immediately (t = 0 min) and after 30 min the addition of 100 μM Cu(II) ions to the SDS-activated CP and deconvoluted the fluorescence spectra into the contributions from each type of tryptophan as described in the experimental section (see Fig. 3 panel A). […]
Fluorescence emission spectra of purified 20S proteasomes (1.5 μM) in a MOPS buffer 10 mM, 0.018% SDS, pH 7.6 were recorded at 37 °C over time prior to and following addition of Cu(II) (100 μM). […] The final fluorescence spectra represent averages of at least three measurements. […] Fluorescence spectra were recorded on a Horiba Fluoromax-4 spectrofluorimeter from 300 to 400 nm in 1-nm steps, at an excitation wavelength λexc = 295 nm. Deconvolution of fluorescence spectra into the log-normal components was performed according to the algorithms integrated into the web-based toolkit PFAST (http://pfast.phys.edu/)[43]. […]

[3] = tested on: ubiquitinated proteins in Hela cells; assay: Western blot of polyubiquitinated proteins in HeLa cells; format: cell-based, human; conditions: 20 and 80 μM Cu(II), 24 hours
Protocol: After 24 h of copper(II) treatment (20–80 μM), HeLa cells were washed with cold PBS, and lysed with 100 μL of RIPA buffer for 5 minutes at 4 °C, sonicated and centrifuged for 10 minutes at 4 °C (1400 rpm). The protein content of lysates is quantified using the BCA method, (protein assay kit, BioRad). Western blotting analysis for polyUb chains was performed on total protein extracts ([…]). Samples were loaded onto 4–12% bis-Tris gel, (Invitrogen). After separation, proteins were transferred onto a nitrocellulose membrane. Membranes were blotted at 4 °C O/N with the following primary antibodies: rabbit monoclonal anti-polyubiquitin (linkage specific K48) (1:2500, Abcam), and mouse anti-β-actin (1:1000, Sigma Aldrich). Secondary goat anti-rabbit labeled with IRDye 680 (1:25.000 Li-COR Biosciences) and goat anti-mouse labeled with IRDye 800 (1:25.000 Li-COR Biosciences) were used at RT for 45 min. Hybridization signals were detected with the Odyssey Infrared Imaging System (LI-COR Biosciences).

[4] = tested on: T3, 26S/20S proteasome assembly in Hela cells; assay: Non-denaturing gel with in-gel peptidase activity of HeLa lysates (20S/26S ratio); format: cell-based, human; conditions: 24 h
T3 construct: endogenous in cells; host or cells: HeLa cells
Protocol: Proteasome-enriched fractions were subjected to non denaturing native gel electrophoresis, as described elsewhere. Briefly, 100 μg of fractionated Hela cells lysates, pretreated for 24 h with 0, 20 or 80 μM Cu(II), were run on a 3–12% non-denaturing, gradient polyacrylamide gel (Invitrogen, Carlsbad, CA) according to a protocol reported elsewhere. hCP (2 μM) treated for 2 h with 0 μM, 20 μM and 80 μM of Cu (II) was used as reference control. Peptidolytic activity of proteasome-enriched fractions from cell lysates was evaluated after incubating the gels in a Suc-LLVY-AMC substrate dissolved in 50 mM Tris pH 8.0, 5 mM MgCl2, 1 mM DTT, 1 mM ATP, at 37 °C for 15 min. Proteasome bands were identified by the release of highly fluorescent free AMC which allowed us to identify the proteasome holo and subcomplexes. Images of the gels were acquired by Chemidoc (Biorad), and fluorescent bands were quantified by using the Image J software.

[5] = tested on: HeLa cells; set-up: method as in PMID 9057888, PMID 21584299; conditions: Cu(II)-supplemented media up to 100 μM; cited from earlier work

In the case of [Cl][Cu][Cl] [Cu(II), CuCl2], the IC50 ([1]; hCP 2 nM, 1 h preincubation with ions, Tris 25 mM pH 7.6, 37 °C, no SDS, read-out: IC50 T-L) is reported as 1450 nM, the IC50 ([1]; in the presence of 0.018% SDS, other conditions unmodified, read-out: IC50 T-L, Cu(II) + SDS) is reported as 1350 nM and the “Red shift of first Trp fluorescence component (gate opening)” value [2] is reported as “decreased rate of red-shift”. The “Accumulation of ubiquitinated proteins” value [3] was “enhanced the accumulation of ubiquitinated proteins”, the “Intensity of CP, CP-RP and CP-RP2 bands” value ([4]; 20 μM Cu(II)) was “does not vary with respect to control” and the “Intensity of CP, CP-RP1 and CP-RP2 bands” value ([4]; 80 μM Cu(II)) was “the amount of CP increases”. The HeLa cell growth [5] was “not inhibited”.
